Results on 4 compounds are retold here after US20070202054A1, “Inhalant Formulation Containing Sulfoalkyl Ether Cyclodextrin and Corticosteroid” (priority 2003, published 2007).

The format of data set [1] is physicochemical. On the procedure:
The phase solubility binding curve for Salmeterol xinafoate and budesonide was determined as described herein, and the approximate equilibrium binding constant (Ki) of each with CAPTISOL was determined. […] The molar ratio of CAPTISOL to Salmeterol xinafoate at saturated solubility was about 3.2 under the test conditions used. Their may be a reduction in the amount of budesonide solubilized by CAPTISOL in the presence of Salmeterol xinafoate; however, clear aqueous liquid solution formulations comprising therapeutically effective amounts of budesonide and Salmeterol xinafoate were prepared.

The conditions of data set [2]: human, in vivo; cited from earlier work.
A short description of data set [3]: Density of CAPTISOL solutions (pycnometer). The following applies: 25° C. The data set is classed as physicochemical. On the procedure:
The concentration of SAE-CD in solution can be expressed on a weight to weight or weight to volume basis; however, these two units are interconvertible. When a known weight of cyclodextrin is dissolved in a known weight of water, the % w/w cyclodextrin concentration is determined by dividing the cyclodextrin weight in grams by the total weight (cyclodextrin+water weight) in like units and multiplying by 100. When a known weight of cyclodextrin is dissolved to a known total volume, the % w/v cyclodextrin concentration is determined by dividing the cyclodextrin weight in grams by the total volume in milliliters and multiplying by 100. The correlation between the two cyclodextrin concentration percentages was experimentally determined by preparing various % w/w cyclodextrin solutions and measuring the density of each with a pycnometer at 25° C.

A short description of data set [4]: Viscosity of SAE-CD solutions (cone and plate viscometer). The format is physicochemical. The following applies: 25 C. As for the experimental part: The performance of an inhalable solution of the invention in a nebulizer may depend upon the viscosity of the solution in its reservoir, the nebulization solution. Viscosity of the inhalable composition can have an impact on percentage of nebulization composition emitted from a nebulizer, output rate of nebulized corticosteroid and droplet size distribution.
The viscosity of aqueous solutions containing SAE-CD were measured using a cone and plate viscometer.
A Brookfield Programmable DV-III+ Rheometer, CPE-40 cone and CPE 40Y plate (Brookfield Engineering Laboratories, Middleboro, Mass.) was used to make measurements on 0.5 ml samples at 1, 2, 3, 5 and 10 rpm. Samples were sheered for approximately 5 revolutions prior to each measurement. This allowed accurate rheological characterization of the samples. The temperature of all samples was equilibrated to 25±1 degree centigrade using a double wall viscometer cone supplied with water from an electronically controlled thermostatic circulating water bath (Model, 8001, Fisher Scientific, Pittsburgh, Pa.). The viscometer was calibrated using 5 and 50 centipoise using silicon oil calibration standards. Viscosity measurements were made at 5 or more rotation speeds to look for sheer thinning behavior (viscosities that decrease as the rate of sheer increases). Higher rotation speeds result in increased rates of sheer.

A further data set relates to red blood cells. The following applies: concentrations typically used to solubilize pharmaceutical formulations; cited from earlier work.

`CCCC1O[C@@H]2C[C@H]3[C@@H]4CCC5=CC(=O)C=C[C@]5(C)[C@H]4[C@@H](O)C[C@]3(C)[C@]2(C(=O)CO)O1` (stereo partly drawn) [Budesonide, (R,S)-11β,16α,17,21-tetrahydroxypregna-1,4-diene-3,20-dione cyclic 16,17-acetal with butyraldehyde]: the “approximate equilibrium binding constant (Ki) with CAPTISOL” value in data set [1] was approximately 600.
In the case of `OCc1cc(C(O)CNCCCCCCOCCCCc2ccccc2)ccc1O` (centres unmarked) [Salmeterol xinafoate], in data set [1], the “approximate equilibrium binding constant (Ki) with CAPTISOL” value was “approximately 3,500” and the “molar ratio of CAPTISOL to drug at saturated solubility” value is reported as “about 3.2”.
Consider `CCNC(=O)[C@@H]1CCCN1C(=O)[C@H](CCCNC(=N)N)NC(=O)[C@H](CC(C)C)NC(=O)[C@@H](CC(C)C)NC(=O)[C@H](Cc1ccc(O)cc1)NC(=O)[C@H](CO)NC(=O)[C@H](Cc1c[nH]c2ccccc12)NC(=O)[C@H](Cc1c[nH]cn1)NC(=O)[C@@H]1CCC(=O)N1` [leuprolide acetate], for which the mean bioavailability in data set [2] was 6.6%.
“Sulfobutyl Ether-β-Cyclodextrin [Captisol]”: the Density in data set [3] (Captisol 8.5 % w/w) was determined as 1.041 g/mL; in data set [3] (Captisol 29.8 % w/w) it was 1.149 g/mL; in data set [3] (Captisol 39.7 % w/w), 1.202 g/mL; in data set [3] (Captisol 49.4 % w/w), 1.259 g/mL; in data set [3] (Captisol 59.4 % w/w), 1.320 g/mL; in data set [3] (Captisol […] w/w), 1.095 g/mL. In addition, the Viscosity was determined as 1.75 Cp in data set [4] (Captisol 8.5 % w/w); 5.91 Cp in data set [4] (Captisol 29.8 % w/w); 17.0 Cp in data set [4] (Captisol 39.7 % w/w); 51.9 Cp in data set [4] (Captisol 49.4 % w/w); 527.0 Cp in data set [4] (Captisol 59.4 % w/w); 2.78 Cp in data set [4] (Captisol […] w/w). The hemolytic behavior entry with red blood cells is on record as “essentially no hemolytic behavior”.
